Measurements published in patent publication US20240156790A1, “COMPOUNDS, COMPOSITIONS, AND METHODS FOR MODULATING FERROPTOSIS AND TREATING EXCITOTOXIC DISORDERS” (THE TRUSTEES OF COLUMBIA UNIVERSITY IN THE CITY OF NEW YORK, priority 2018, published 2024).
“Also recorded” adds a separate entry of the source. Read-outs that look alike come from different tables or passages of the source.

How the values were obtained:
[1] = Microsomal Stability Assay (Examples 6 and 8); type: in vitro ADME, mouse; details: for half-life at 20 µM: CD-1, mouse, liver microsomes; for microsomal stability / half-life, in words: assessed over two hours
Procedure: (§1) To a 96-well polypropylene plate was added phosphate buffer (182.2 μL, pH 7.4, 100 mM) followed by addition of NADPH-regenerating system solution A (10 μL), and NADPH regenerating system solution B (2 μL) (Corning Gentest 3P NADPH regenerating system solution A (#451220) and B (#451200)). A stock solution of analog (0.8 μL. 5 mM) or fer-1 (positive control) was added and the mixture was warmed to 37° C. for 5 min. Mouse microsomes (CD-1, 20 mg/mL, Life Technologies) (5 μL, thawed in 37° C. water bath before use) were added. The resulting reaction mixture was kept at 37° C. with gentle agitation for the duration of the experiment. At selected time points (0, 1, 5, 10, 20, 30, 60 and 120 min) aliquots (15 μL) were withdrawn from the plate and quenched upon addition to cold methanol (60 μL), containing an internal standard (5 μM) in a separate 96-well polypropylene plate. At the completion of the final time-point, the samples were centrifuged at 4,000 rpm for 5 min at 4° C. The supernatant (40 μL) was withdrawn and transferred to a sample vial with insert. The samples were analyzed by LC-MS. LC-MS analysis was performed on a platform comprising a Thermo Scientific Dionex Ultimate 3000 and a Bruker amaZon SL equipped with an electrospray ionization source controlled by Bruker Hystar 3.2. Chromatographic separation was performed by injecting 5 μL of the sample onto an Agilent Eclipse Plus C18 column (2.1×50 mm, 3.5 μm) maintained at 20° C. The flow rate was maintained at 400 μL/min. The initial flow conditions were 80% solvent A (water containing 0.1% acetic acid) and 20% solvent B (methanol containing 0.1% acetic acid). Solvent B was raised to 80% over 0.50 min by 1.50 min. Solvent B was raised to 100% by 5.00 min and held there for 3.25 min. […] All analogs were detected in positive mode as [M+H]*. The percent of compound remaining at each time-point was calculated as the ratio of the integrated compound peak over the internal standard peak and standardized to the t=0 time-point. Values were plotted in GraphPad Prism 9 and fit with a one phase decay.
as §1, with “and NADPH-regenerating” for “and NADPH regenerating”, “rpm (1872 g)” for “rpm”, “[M+H]*. […]” for “[M+H]*. The percent of compound remaining at each time-point was calculated as the ratio of the integrated compound peak over the internal standard peak and standardized to the t=0 time-point. Values were plotted in GraphPad Prism 9 and fit with a one phase decay.”

[2] = tested on: modified bacteria sensitive to mutagenic agents; type: cell-based; details: […] to 82 μM, 3 days
Procedure: The AMES test uses modified bacteria sensitive to mutagenic agents to assess a compound's ability to cause direct DNA mutations. If the tested drug can induce reverse mutational events, it will cause bacteria to revert back to a prototrophic state and grow on media lacking selected nutrients. We tested TH-2-31, TH-4-55-2, and TH-4-67 using the AMES test. CFI-4082 was also included in the test for comparison. Bacteria strains were incubated under exposure to different concentrations of tested compounds for 3 days and collected 144 data points of mutation status at each concentration. The concentration ranged from 5.1 μM to 82 μM, which is the highest local organ concentration of our compounds in the above mice study (FIG. 12).
The Ames test uses modified bacteria sensitive to mutagenic agents to assess a compound's ability to cause direct DNA mutations. If a tested compound can induce revert mutational events, it will cause bacteria to revert back to a prototrophic state and grow on media lacking selected nutrients. We evaluated TH-2-31, TH-4-55-2, and TH-4-67 in the Ames test. We also included PHB4082 in this test. Bacteria strains were incubated under exposure to different concentrations of tested compounds for three days and 144 data points were collected on mutation status across a concentration range from 5.1 μM to 82 μM, which was the highest local organ concentration observed in previous mouse studies.

[3] = tested on: N27 rat dopaminergic cells; experiment: Suppression of ferroptosis induced by RSL3 in N27 cells (CellTiter-Glo viability); type: cell-based
[4] = pH 7.4, independent test I, read-out: t1/2 I
[5] = pH 7.4, independent test II, read-out: t1/2 II
[6] = pH 7.4, independent test III, read-out: t1/2 III
[7] = pH 7.4, text, read-out: half-life in mouse liver microsomes
[8] = Rattus norvegicus, N27, 24 h, 20 nM RSL3, 24 hours, separate experiment I, read-out: IC50 I
[9] = Rattus norvegicus, N27, 24 h, 20 nM RSL3, 24 hours, separate experiment II, read-out: IC50 II
[10] = Rattus norvegicus, N27, 24 h, 20 nM RSL3, 24 hours, separate experiment III, read-out: IC50 III
[11] = Rattus norvegicus, N27, 24 h, Table 3, ^d 24 hr treatment, 1,000 cells/well seeded, read-out: IC50
[12] = Rattus norvegicus, N27, 24 h, Table 13, 20 nM RSL3, treated for 24 hours^d, read-out: IC50
[13] = Rattus norvegicus, N27, 24 h, RSL3 20 nM, 24 hours of treatment, read-out: IC50
[14] = Rattus norvegicus, N27, Table 7, value used for Cmax/IC50, read-out: IC50

Structure (SMILES) | half-life at 20 µM [1, 4] | half-life at 20 µM [1, 5] | half-life at 20 µM [1, 6] | half-life at 20 µM [1, 7] | microsomal stability / half-life, in words [1] | mutagenic potential (Ames test result) [2] | potency relative to fer-1, in words ([3]; 20 nM RSL3) | IC50 [3, 8] | IC50 [3, 9] | IC50 [3, 10] | IC50 [3, 11] | IC50 [3, 12] | IC50 [3, 13] | IC50 [3, 14] | EC50 ([3]; Rattus norvegicus, N27, text b573) | IC50 ([3]; Rattus norvegicus, N27, Table 3, ^d 24 hr treatment, 1,000 cells/well seeded, read-out: IC50) | IC50 ([3]; Rattus norvegicus, N27, Table 3, ^e 48 hr treatment, 1,000 cells/well seeded, read-out: IC50)
CCC(CC)Nc1cc(-c2nc(C)no2)cnc1NC1CCCCC1 [TH-4-55-2, N^2-cyclohexyl-5-(3-methyl-1,2,4-oxadiazol-5-yl)-N^3-(pentan-3-yl)pyridine-2,3-diamine] | > 2 h | > 2 h | > 2 h | > 1 h | half-life greater than two hours | none of the compounds had mutagenic potential | more potent than fer-1 | 0.8 nM | 1 nM | 4.9 nM | 2.2 nM | 2.2 nM | < 10 nM | 2.23 nM |  |  | 
Cc1noc(-c2cnc(NC3CCCC3)c(NC3CCCC3)c2)n1 [TH-4-67, N^2,N^3-dicyclopentyl-5-(3-methyl-1,2,4-oxadiazol-5-yl)pyridine-2,3-diamine] | > 2 h | > 2 h | > 2 h | > 1 h | half-life greater than two hours | none of the compounds had mutagenic potential | more potent than fer-1 | 1.5 nM | 1.4 nM | 3.4 nM | 2.1 nM | 2.1 nM |  | 2.1 nM | 2 nM |  | 
Cc1noc(-c2cnc(NC3CCCCC3)c(NC3CCCCC3)c2)n1 [TH-2-31, N^2,N^3-dicyclohexyl-5-(3-methyl-1,2,4-oxadiazol-5-yl)pyridine-2,3-diamine] | > 2 h | > 2 h | > 2 h | 0.5 to 1 h | the most stable; also recorded: half-life greater than two hours | none of the compounds had mutagenic potential | less potent than fer-1 | 2.6 nM | 1.4 nM | 6.1 nM | 3.4 nM | 3.4 nM | < 10 nM | 3.37 nM |  |  | 
CCOC(=O)c1ccc(NC2CCCCC2)c(N)c1 [Fer-1, Ferrostatin-1, reference compound] |  |  |  | 0.04 h |  |  |  |  |  |  |  |  |  |  |  | 3.2 nM | 12.5 nM
Cc1noc(-c2ccc(NC3CCCCC3)c(NC3CCCCC3)c2)n1 [PHB4082, N1,N2-dicyclohexyl-4-(3-methyl-1,2,4-oxadiazol-5-yl)benzene-1,2-diamine] |  |  |  |  | half-lives greater than two hours |  |  |  |  |  |  | 2.6 nM |  |  |  |  | 
